# Measured values as given in US20110105389A1 (priority 2009, published 2011).
# How the values were obtained:
# [1] = target: T1, GHS-R1a receptor (HEK293 cells expressing GHS-R1a receptor) (Homo sapiens, UniProt Q92847); assay: Fluorescence functional assay (ghrelin receptor), Method B2, agonist and antagonist mode; format: cell-based; conditions: functional activity as an antagonist at the ghrelin receptor, Methods B2 and B3
# T1 construct: host or cells: HEK293
# Outline: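 Calcium flux read by ImageTrak epifluorescence in HEK293 cells stably expressing GHS-R1a, loaded 1 h at 37 °C with Calcium-3 dye; buffer HBSS/20 mM Hepes, pH 7.4, with probenecid and BSA. Agonists injected after 10 s baseline, read 50 s more; antagonists 3 min. Sigmoidal fits gave EC50 or IC50.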
# [2] = Metabolic stability in human liver microsomes, Method B8; format: in vitro ADME; conditions: human liver microsomes 0.8 mg/mL, 5 μM compound, 37° C.
# Source text: B8. Metabolic Stability in Human Liver Microsomes
# The liver is the primary site for phase I (oxidation) and phase II (glucuronidation) enzymatic activity responsible for xenobiotic metabolism. Human liver microsomes are used as in vitro screen of metabolic activity for candidate drugs. Similar studies can be run with microsomes from other species, such as those used for in vivo studies, to determine any significant species differences in the stability profile. The aim of this study was to measure the broad-spectrum metabolic stability of representative compounds of the invention. The key aspects of the experimental design are summarized below: • Human liver microsomes (mixed pool of 15 male and female donors) were purchased from In Vitro Technologies (Baltimore, Md.). • Microsomes characterized for phase I (Cyp2A6, 2D6, 2E1, 1A2, 2C19, 3A4, 4A) and phase II (glucuronidation) enzymatic activity. • Assays are performed using a final concentration of 0.8 mg/mL of microsomes in 100 mM potassium phosphate buffer (1.5 mM NADPH, 8 mM MgCl2, pH 7.4, 37° C.). • Compounds are tested in duplicate samples at a single concentration of 5 μM (0.05% DMSO). • Test articles are incubated with the microsomes at 37° C.
# [3] = target: T2, human ghrelin receptor (GRLN, growth hormone secretagogue receptor, hGHS-R1a) (Homo sapiens, UniProt Q92847); assay: Competitive radioligand binding assay (ghrelin receptor), Method B1; conditions: Ghrelin receptor binding activity, Method B1
# T2 construct: purchased PerkinElmer BioSignal #RBHGHSM, lot#1887; host or cells: HEK-293 cells, stably transfected (membranes)
# Outline: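 Filtration competition format: bound radioactivity counted after GF/C harvesting and cold 50 mM Tris-HCl washes. Incubation lasted 30 min at room temperature in Hepes pH 7.4 buffer with Ca2+, Mg2+, EDTA and 0.4% BSA (DMSO ≤0.1% final); values from variable-slope non-linear regression.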
# [4] = target: T3, ghrelin receptor (HEK-GHSR1 stable cells) (Homo sapiens, UniProt Q92847); assay: Ghrelin receptor inverse agonist assay (HTRF IP-one), Method B4; format: cell-based; conditions: inverse agonist at the ghrelin receptor, Method B4
# T3 construct: expressed in transfected cells
# Source text: B4. Ghrelin Receptor Inverse Agonist Assay […]
# In addition, the following method can be utilized to assay for inverse agonist activity. (Thomsen, W.; et al. Curr. Opin. Biotechnol. 2005, 16, 655-665; Tozawa-Takahashi F; et al., 11th SBS Annual Conference. September 2005, Geneva; Trinquet, E.; Fink, M.; Bazin, H.; et al. Anal. Biochem. 2006, 358, 126-135; Bergsdorf, C.; Kropp-Goerkis, C.; Kaehler, I.; Ketscher, L.; Boerner, U.; Parczyk, K.; Bader, B. Assay Drug Dev. Technol. 2008, 6, 39-53.)
# • 1. Remove culture medium from the plate by inversion. • 2. Add 70 μl of compound/well. • 3. Incubate 30 min at 37° C. • 4. Stop the reaction by adding 15 μl of lysis buffer/well. • 5. Add 15 μl of d2/well. • 6. Add 15 μl of Anti-IP1 cryptate/well. • 7. Incubate 1 h at room temp on an orbital shaker at 100 RPM. • 8. Read the fluorescence in a plate reader (Tecan GeniosPro or similar)
# The above sequence was performed using the HTRF IP-one kit (CisBio cat#62P1APEC). For the simultaneous assay of multiple test compounds, 96-well plates can be utilized in this assay (white plate with flat-bottom well, Falcon #353296). These were seeded overnight with 100 000 of HEK-GHSR1 stable cells/well. • Wells A1 and A2 of each plate are used as negative control (wells without d2). Compounds are typically tested in replicate at the following concentrations:
# Compounds are stored at 10 mM in 100% DMSO.
# 1st dilution 1/10 in 100% DMSO (1 mM final concentration).
# 2nd dilution 1/10 in H2O (0.1 mM final concentration).
# Other dilutions are performed in a 96-well plate in stimulation buffer.
# The results for representative compounds of the invention are provided in the Examples.
# [5] = Pharmacokinetic analysis (intravenous and oral), Method B9; format: in vivo; conditions: Table 10b; for Cl / t1/2: 2 mg/mL intravenous typically employed
# Source text: B9. Pharmacokinetic Analysis
# The pharmacokinetic (PK) behavior of compounds of the invention and their pharmaceutical compositions can be ascertained by methods well known to those skilled in the art and can be used to investigate the pharmacokinetic parameters (elimination half-life, total plasma clearance, etc.) for intravenous, subcutaneous and oral administration of these substances. (Wilkinson, G. R. “Pharmacokinetics: The Dynamics of Drug Absorption, Distribution, and Elimination” in Goodman & Gilman's The Pharmacological Basis of Therapeutics, Tenth Edition, Hardman, J. G.; Limbird, L. E., Eds., McGraw Hill, Columbus, Ohio, 2001, Chapter 1.) See also U.S. Pat. Nos. 7,476,653; 7,491,695; Intl. Pat. Appl. WO 2008/033328 and U.S. Patent Appl. Publ. 2008/0194672. As an example, compound 1505 has the PK profile below.
# The determination of PK parameters for additional representative compounds of the invention is presented in the Examples.
# A detailed analysis of the pharmacokinetic profile of representative compounds of the invention was conducted using the procedures outlined in Method B9.
# A dose level of 2 mg/mL for intravenous administration and 8 mg/mL for oral administration were typically employed.
# T3 sequence (Q92847 whole entry): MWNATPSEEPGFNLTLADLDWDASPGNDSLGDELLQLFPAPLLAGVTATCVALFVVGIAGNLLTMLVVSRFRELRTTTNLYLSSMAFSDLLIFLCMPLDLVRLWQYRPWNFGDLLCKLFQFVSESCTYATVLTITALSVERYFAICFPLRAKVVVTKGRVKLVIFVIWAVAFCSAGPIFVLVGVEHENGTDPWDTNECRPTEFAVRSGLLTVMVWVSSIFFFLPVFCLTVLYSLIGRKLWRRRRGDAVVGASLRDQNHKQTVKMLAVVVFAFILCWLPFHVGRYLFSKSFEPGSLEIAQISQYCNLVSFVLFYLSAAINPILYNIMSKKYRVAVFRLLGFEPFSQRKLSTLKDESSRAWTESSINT
# T2 sequence (Q92847 whole entry): as above
# T1 sequence (Q92847 whole entry): as above
structure (smiles),measurement,setting,value
COc1cccc(C[C@H]2NC(=O)[C@H](C(C)O)N(C)C(=O)[C@H](C(C)C)NCCOc3ccccc3CC[C@@H](C)NC2=O)c1 (stereo partly drawn) [Compound 1371],Antagonist Activity,[1],B (B = 1-10 nM)
same,"HLM, metabolic stability in human liver microsomes",[2],30.5 μL/min/mg protein
CC(C)[C@@H]1NCCOc2ccccc2CC[C@@H](C)NC(=O)[C@@H](Cc2ccc(F)c(F)c2)NC(=O)[C@H](C(C)O)N(C)C1=O (stereo partly drawn) [Compound 1372],Antagonist Activity,[1],A (A <1 nM)
same,"HLM, metabolic stability in human liver microsomes",[2],60.8 μL/min/mg protein
Cc1cccc(C[C@H]2NC(=O)[C@H](C(C)O)N(C)C(=O)[C@H](C(C)C)NCCOc3ccccc3CC[C@@H](C)NC2=O)c1 (stereo partly drawn) [Compound 1373],Antagonist Activity,[1],A (A <1 nM)
same,"HLM, metabolic stability in human liver microsomes",[2],31 μL/min/mg protein
CC(C)[C@@H]1NCCOc2ccccc2CC[C@@H](C)NC(=O)[C@@H](Cc2cccc(C#N)c2)NC(=O)[C@H](C(C)O)N(C)C1=O (stereo partly drawn) [Compound 1374],Antagonist Activity,[1],B (B = 1-10 nM)
same,"HLM, metabolic stability in human liver microsomes",[2],35.8 μL/min/mg protein
CC(C)[C@@H]1NCCOc2c(F)cccc2CCCNC(=O)[C@@H](Cc2ccccc2)NC(=O)[C@H](C(C)O)N(C)C1=O (stereo partly drawn) [Compound 1376],Antagonist Activity,[1],C (C = 10-100 nM)
same,"HLM, metabolic stability in human liver microsomes",[2],32.2 μL/min/mg protein
CC(C)[C@@H]1NCCOc2ccc(F)cc2CCCNC(=O)[C@@H](Cc2ccccc2)NC(=O)[C@H](C(C)O)N(C)C1=O (stereo partly drawn) [Compound 1377],"HLM, metabolic stability in human liver microsomes",[2],65.5 μL/min/mg protein
CC(C)[C@@H]1NCCOc2cccc(F)c2CCCNC(=O)[C@@H](Cc2ccccc2)NC(=O)[C@H](C(C)O)N(C)C1=O (stereo partly drawn) [Compound 1378],Antagonist Activity,[1],C (C = 10-100 nM)
same,"HLM, metabolic stability in human liver microsomes",[2],42.9 μL/min/mg protein
CC[C@@H]1CCc2ccccc2OCCN[C@@H](C(C)C)C(=O)N(C)[C@@H](C(C)O)C(=O)N[C@H](Cc2ccccc2)C(=O)N1 (stereo partly drawn) [Compound 1393],Antagonist Activity,[1],B (B = 1-10 nM)
same,"HLM, metabolic stability in human liver microsomes",[2],46.6 μL/min/mg protein
CC(C)[C@@H]1NCCOc2ccccc2CC[C@@H](C)NC(=O)[C@@H](Cc2cccc(C(F)(F)F)c2)NC(=O)[C@H](C(C)O)N(C)C1=O (stereo partly drawn) [Compound 1412],"HLM, metabolic stability in human liver microsomes",[2],35.4 μL/min/mg protein
Cc1cccc(C[C@H]2NC(=O)[C@H](C(C)O)N(C)C(=O)[C@H](C(C)C)NCCOc3cc(F)ccc3CC[C@@H](C)NC2=O)c1 (stereo partly drawn) [Compound 1451],Antagonist Activity,[1],B (B = 1-10 nM)
same,"HLM, metabolic stability in human liver microsomes",[2],10.4 μL/min/mg protein
COc1cccc(C[C@H]2NC(=O)[C@H](C(C)O)N(C)C(=O)[C@H](C(C)C)NCCOc3cc(F)ccc3CC[C@@H](C)NC2=O)c1 (stereo partly drawn) [Compound 1473],"HLM, metabolic stability in human liver microsomes",[2],14.2 μL/min/mg protein
CC(C)C1NCCOc2cc(F)ccc2C=CCNC(=O)C(Cc2ccc(F)cc2)NC(=O)C(C(C)O)N(C)C1=O (stereo not drawn) [Compound 1690],IC50,[3],1 to 10 nM
same,IC50,[4],50 to 100 nM
same,"HLM, metabolic stability in human liver microsomes",[2],21.8 μL/min/mg protein
CC(C)C1NCCOc2ccccc2C#CCNC(=O)C(Cc2cccc(F)c2)NC(=O)C(C(C)O)N(C)C1=O (stereo not drawn) [Compound 1691],IC50,[3],1 to 10 nM
same,IC50,[4],100 to 500 nM
same,"HLM, metabolic stability in human liver microsomes",[2],53.7 μL/min/mg protein
CC(C)C1NCCOc2cc(F)ccc2C=CCNC(=O)C(Cc2ccccc2)NC(=O)C(C(C)O)N(C)C1=O (stereo not drawn) [Compound 1702],IC50,[3],1 to 10 nM
same,IC50,[4],50 to 100 nM
same,"HLM, metabolic stability in human liver microsomes",[2],14.1 μL/min/mg protein
CCC(C)C1NCCOc2ccccc2C#CCNC(=O)C(Cc2ccc(Cl)cc2)NC(=O)C(C(C)O)N(C)C1=O (stereo not drawn) [Compound 1704],IC50,[3],10 to 100 nM
same,IC50,[4],100 to 500 nM
same,"HLM, metabolic stability in human liver microsomes",[2],33.5 μL/min/mg protein
CCC1CCc2ccc(F)cc2OC(C)CNC(C2(C)CC2)C(=O)N(C)C(C(C)O)C(=O)NC(Cc2ccccc2)C(=O)N1 (stereo not drawn) [Compound 1705],IC50,[3],10 to 100 nM
same,Antagonist Activity,[1],C (C = 10-100 nM)
same,IC50,[4],100 to 500 nM
same,% F,[5]; 2 mg/mL intravenous and 8 mg/mL oral typically employed,50 ± 14%
same,Cl,[5],6 ± 2 mL/min/kg
same,t1/2,[5],166 ± 2 min
CC[C@@H]1CCc2c(F)cccc2OCCN[C@@H](C(C)C)C(=O)N(C)[C@@H](C(C)O)C(=O)N[C@H](Cc2ccc(F)cc2)C(=O)N1 (stereo partly drawn) [Compound 1723],IC50,[3],10 to 100 nM
same,IC50,[4],100 to 500 nM
same,"HLM, metabolic stability in human liver microsomes",[2],64.3 μL/min/mg protein
CC[C@@H]1CCc2c(F)cccc2OCCN[C@@H](C(C)C)C(=O)N(C)[C@@H](C(C)O)C(=O)N[C@H](Cc2c[nH]c3ccccc23)C(=O)N1 (stereo partly drawn) [Compound 1725],IC50,[3],10 to 100 nM
same,IC50,[4],100 to 500 nM
same,"HLM, metabolic stability in human liver microsomes",[2],66.5 μL/min/mg protein
CCC(C)C1NCCOc2ccccc2C=CCNC(=O)C(Cc2ccccc2C)NC(=O)C(C(C)O)N(C)C1=O (stereo not drawn) [Compound 1737],IC50,[3],1 to 10 nM
same,IC50,[4],50 to 100 nM
same,"HLM, metabolic stability in human liver microsomes",[2],83.9 μL/min/mg protein
CCC(C)C1NCCOc2ccccc2C=CCNC(=O)C(Cc2ccccc2Cl)NC(=O)C(C(C)O)N(C)C1=O (stereo not drawn) [Compound 1738],IC50,[3],1 to 10 nM
same,IC50,[4],10 to 50 nM
same,"HLM, metabolic stability in human liver microsomes",[2],53.2 μL/min/mg protein
CCC1CCc2ccc(F)cc2OCCNC(C(C)C)C(=O)N(C)C(C(C)O)C(=O)NC(Cc2c[nH]c3ccc(F)cc23)C(=O)N1 (stereo not drawn) [Compound 1803],IC50,[3],1 to 10 nM
same,Antagonist Activity,[1],B (B = 1-10 nM)
same,IC50,[4],10 to 50 nM
same,Cl,[5],10 ± 1 mL/min/kg
same,t1/2,[5],103 ± 13 min
